Reference: patent US12630501B2, “Anti-fibrotic compounds and use thereof” (HADASIT MEDICAL RESEARCH SERVICES AND DEVELOPMENT LTD., priority 2019, dated 2026)

Experiments:
[1] = tested on: FLIP; assay: FLIP protein by Western blot and flow cytometry in IPF-lung myofibroblasts; format: cell-based, human; settings: CMH 30 μM, 72 h
Description: Human lung myofibroblasts Differentiated fibroblasts from IPF-lungs and controls from patient lung biopsies performed for tumor diagnosis were obtained under a protocol detailed in Wallach-Dayan et al., J. Autoimmun. 59: 67-76, 2015. LL 97A (AlMy) (ATCC® CCL-191™)-IPF-lung, and LL 24 (ATCC® CCL-151™)-normal lung fibroblast cell lines were used.
FLIP protein in lung myofibroblasts Standard WB and flow cytometry were performed as described in Cohen et al., Am. J. Respir. Cell Mol. Biol. 40: 231-238, 2009.
FLIP downregulation from an OD of 1.85 to 0.49 (about 3.5-fold) was detected in WB (FIG. 4F), and a […] from a mean fluorescence intensity (MFI)=10^3 to only 10^1 was detected with flow cytometry (FIG. 4G). Thus, SIRT1-mediated Ku70-deacetylation stabilizes IPF-lung myofibroblast FLIP via Ku70/FLIP complex. This effect of CMH on Ku70 further disrupts Ku70/FLIP complex and destabilizes FLIP in IPF-lung myofibroblasts.
IPF cell line ATCC-191 (0.5×10^6), were exposed in culture (10% DMEM) to a compound of Formula 6 (1 or 3 μM) vs. 4% DMSO (vehicle) for 16 h. Ku70 immunoprecipitation with subsequent pan-acetyl (FIG. 8A) and immunoblots of Ku70 with anti-Ku70 mAb (FIG. 8B) or FLIP with anti-FLIP mAb (FIG. 8C) were measured. […] IPF-lung myofibroblasts decreased FLIP expression from an OD of 1.00 to 0.51 (about twofold, FIG. 8C).
IPF cell line ATCC-191 (0.5×10^6), were exposed in culture (10% DMEM) to a compound of Formula 12 (1 μM), vs. 4% DMSO (vehicle) for 16 h. Immunoblots of FLIP with anti-FLIP mAb were performed (FIG. 9). […] Thus, the compound of Formula 12 attenuates FLIP stabilization in IPF-lung myofibroblast.

[2] = tested on: BLM-treated C57BL/6 WT mice; assay: Bleomycin-induced lung fibrosis in mice, CMH by oropharyngeal aspiration; format: in vivo, mouse
Excerpt: Animals C57BL/6 and mutant mice, male, 11-12 weeks old (Harlan Sprague Dawley, Indianapolis, IN, USA) were used. SIRT1 dominant-negative mice carry a point mutation (H355Y), Sirt1^tm2.1Mcby (Sirt1^y/y, RBRC05324, RIKEN Bio Resource Center, Japan) that ablates SIRT1 enzymatic activity, described in Gabay et al., Arthritis Rheum. 65: 159-166, 2013; and Seifert et al., FASEB J. 26: 555-566, 2012. Mice were maintained under specific pathogen-free conditions with adherence to institutional guidelines for the care and use of laboratory animals. Chimeric mice with SIRT1-deficient mice and WT hematopoietic cells were generated as described in Golan-Gerstl et al., Am. J. Respir Cell Mol. Biol. 36: 270-275, 2007.
Oropharyngeal aspiration (OA) and induction of lung fibrosis in mice Oropharyngeal aspiration of BLM (OA-BLM) was performed as detailed in Golan-Gerstl et al., Am. J. Respir. Cell Mol. Biol. 36: 270-275, 2007. Lung fibrosis was assessed via semi-quantitative morphological index (Wallach-Dayan et al., PNAS USA 104: 20460-20465, 2007). Lung collagen was measured using a Sircol Collagen Assay kit (Biocolor, Belfast, Northern Ireland), and standard protocol of trichrome staining. Isolation of mouse lung myofibroblasts Myofibroblast isolation and culture was performed as described in Golan-Gerstl et al., Am. J. Respir. Cell Mol. Biol. 36: 270-275, 2007; and Wallach-Dayan et al., PNAS USA 104: 20460-20465, 2007.
Immunohistochemistry (IHC) staining of lung tissue sections was performed as described in Golan-Gerstl et al., Am. J. Respir Cell Mol. Biol. 36: 270-275, 2007; and Wallach-Dayan et al., PNAS USA 104: 20460-20465, 2007.
CMH (30 μM) or control vehicle 4% DMSO were administered into WT mice by a second OA on day 6 of OA-BLM (0.05 mU), or control-saline (FIG. 6A). Similar to SIRT1^y/y mice, BLM-treated mice and control saline-treated mice (FIG. 6B) that were exposed to CMH vs. vehicle alone, had low SIRT1 and FLIP expression in lung sections. Myofibroblasts isolated from lungs of BLM-treated mice had decreased Ku70 binding to SIRT1 from 1.2 to 0.6 (FIG. 6C), increased Ku70 acetylation from an OD of 0.1 to 0.91 (FIG. 6D), and decreased Ku70/FLIP complex from an OD of 2.43 to 1.55 (FIG. 6E). Compared to vehicle, CMH-treated mice reduced H&E and collagen-trichrome staining (FIG. 6F, upper and lower panels, respectively), SMI grade (average SMI from 2 to 1.1, FIG. 6G), and collagen in Sircol assay (from 200 μg to only 50 μg, FIG. 6H). Thus, In vivo inhibition of SIRT1 activity, FLIP expression, and lung fibrosis were detected in CMH-BLM-treated mice and attenuation of deacetylation activity on Ku70, a decrease in Ku70/FLIP complex, and FLIP expression levels were detected in myofibroblasts isolated from lungs of CMH-BLM-treated mice. SIRT1-mediated Ku70-deacetylation may therefore stabilize FLIP via Ku70/FLIP complex in lung myofibroblasts promoting fibrosis, which can be inhibited by CMH.

[3] = target: HDACS (Homo sapiens, UniProt Q9UQL6); settings: prostate cancer cells; cited from earlier work
[4] = target: T1, HDAC8 (Homo sapiens, UniProt Q9BY41); settings: prostate cancer cells; cited from earlier work
T1 sequence (Q9BY41 1-377): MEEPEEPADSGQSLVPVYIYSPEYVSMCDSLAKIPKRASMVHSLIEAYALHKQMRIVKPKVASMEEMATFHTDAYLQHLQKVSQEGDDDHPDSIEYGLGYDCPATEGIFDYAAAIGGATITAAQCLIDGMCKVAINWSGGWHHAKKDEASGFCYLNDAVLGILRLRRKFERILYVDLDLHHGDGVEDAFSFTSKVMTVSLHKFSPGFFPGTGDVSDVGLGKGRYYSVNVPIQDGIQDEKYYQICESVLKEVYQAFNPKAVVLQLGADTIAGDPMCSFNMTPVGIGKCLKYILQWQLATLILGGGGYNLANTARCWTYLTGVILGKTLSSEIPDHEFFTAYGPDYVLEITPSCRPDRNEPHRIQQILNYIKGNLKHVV

[5] = target: HDAC9 (Homo sapiens, UniProt Q9UKV0); settings: prostate cancer cells; cited from earlier work
[6] = CMH 30 μM by OA on day 6 of OA-BLM, vs. vehicle

Chain of HDACS (Q9UQL6 whole entry): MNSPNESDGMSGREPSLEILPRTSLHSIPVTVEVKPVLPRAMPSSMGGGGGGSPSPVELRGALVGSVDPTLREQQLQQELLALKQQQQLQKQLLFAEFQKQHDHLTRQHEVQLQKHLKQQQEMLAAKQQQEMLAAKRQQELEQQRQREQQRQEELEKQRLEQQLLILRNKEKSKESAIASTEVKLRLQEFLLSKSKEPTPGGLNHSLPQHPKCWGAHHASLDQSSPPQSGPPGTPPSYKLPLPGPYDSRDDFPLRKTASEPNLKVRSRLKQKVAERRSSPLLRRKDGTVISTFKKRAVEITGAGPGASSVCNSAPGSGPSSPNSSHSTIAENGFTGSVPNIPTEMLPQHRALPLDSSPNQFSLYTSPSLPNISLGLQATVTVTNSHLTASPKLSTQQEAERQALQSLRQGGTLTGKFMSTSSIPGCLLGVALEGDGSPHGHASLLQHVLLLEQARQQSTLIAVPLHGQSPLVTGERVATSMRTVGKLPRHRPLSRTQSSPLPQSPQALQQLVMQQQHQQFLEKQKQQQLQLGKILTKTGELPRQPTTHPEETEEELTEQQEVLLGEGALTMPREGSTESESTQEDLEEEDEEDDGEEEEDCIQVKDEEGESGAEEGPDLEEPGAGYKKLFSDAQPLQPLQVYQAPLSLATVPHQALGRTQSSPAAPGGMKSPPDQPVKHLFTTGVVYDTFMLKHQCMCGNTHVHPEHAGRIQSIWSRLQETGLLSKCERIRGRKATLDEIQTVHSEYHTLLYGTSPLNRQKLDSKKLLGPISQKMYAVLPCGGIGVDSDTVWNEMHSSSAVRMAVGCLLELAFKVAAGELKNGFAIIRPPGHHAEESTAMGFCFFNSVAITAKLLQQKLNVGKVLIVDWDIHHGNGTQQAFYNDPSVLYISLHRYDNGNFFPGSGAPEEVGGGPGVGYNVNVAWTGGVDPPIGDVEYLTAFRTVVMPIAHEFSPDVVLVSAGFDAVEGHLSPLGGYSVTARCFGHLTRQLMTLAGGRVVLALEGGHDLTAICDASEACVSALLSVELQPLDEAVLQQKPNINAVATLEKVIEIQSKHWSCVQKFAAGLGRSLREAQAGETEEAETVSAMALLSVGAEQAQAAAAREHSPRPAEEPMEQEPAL
Chain of HDAC9 (Q9UKV0 whole entry, species assumed): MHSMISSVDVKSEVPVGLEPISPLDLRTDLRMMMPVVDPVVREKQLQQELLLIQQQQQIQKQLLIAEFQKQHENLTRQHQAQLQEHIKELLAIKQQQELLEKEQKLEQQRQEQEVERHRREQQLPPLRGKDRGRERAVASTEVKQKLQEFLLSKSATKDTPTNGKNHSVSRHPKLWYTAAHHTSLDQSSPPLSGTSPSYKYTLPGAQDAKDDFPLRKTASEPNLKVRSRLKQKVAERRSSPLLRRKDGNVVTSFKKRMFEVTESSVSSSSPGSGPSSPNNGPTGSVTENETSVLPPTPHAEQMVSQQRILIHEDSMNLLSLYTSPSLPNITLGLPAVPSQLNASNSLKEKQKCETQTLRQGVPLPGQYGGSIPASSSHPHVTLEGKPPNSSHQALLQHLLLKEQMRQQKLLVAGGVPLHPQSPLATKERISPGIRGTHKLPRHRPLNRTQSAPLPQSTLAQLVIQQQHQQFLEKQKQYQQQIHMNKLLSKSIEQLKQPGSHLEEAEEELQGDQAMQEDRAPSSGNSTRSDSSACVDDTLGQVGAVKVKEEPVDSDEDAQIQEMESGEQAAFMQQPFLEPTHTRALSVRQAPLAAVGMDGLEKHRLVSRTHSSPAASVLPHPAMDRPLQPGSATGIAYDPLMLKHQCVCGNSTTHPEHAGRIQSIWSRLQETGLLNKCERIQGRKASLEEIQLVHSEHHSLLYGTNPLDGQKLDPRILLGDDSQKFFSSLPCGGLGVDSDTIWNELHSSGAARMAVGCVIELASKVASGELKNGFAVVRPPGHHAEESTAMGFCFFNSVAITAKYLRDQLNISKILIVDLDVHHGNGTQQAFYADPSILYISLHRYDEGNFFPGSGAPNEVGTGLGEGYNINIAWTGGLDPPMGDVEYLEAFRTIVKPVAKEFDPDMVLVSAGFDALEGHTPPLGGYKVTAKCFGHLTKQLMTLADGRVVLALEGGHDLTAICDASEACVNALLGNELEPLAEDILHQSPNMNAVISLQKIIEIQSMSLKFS

Q: Which “FLIP downregulation in WB” value [1] does the source give for `Cc1cc(Cl)ccc1OCCCC(=O)NO` [CMH, 4-(4-chloro-2-methylphenoxy)-N-hydroxybutanamide] here?
A: Its value is “about 3.5 fold”.

Q: And the “FLIP reduction by flow cytometry” value [1]?
A: The value was 60%.

Q: And the “FLIP OD in WB” value ([1]; from 1.85)?
A: The value was 0.49 OD.

Q: What about the “FLIP mean fluorescence intensity (MFI), flow cytometry” value ([1]; from 10^3) of the same molecule?
A: The value was 10^1.

Q: And the “H&E and collagen-trichrome staining of lung tissue sections” value ([2]; CMH 30 μM OA day 6, day 14 post BLM, compared to vehicle)?
A: The value was “reduced”.

Q: And the “Collagen in Sircol assay” value ([2]; CMH 30 μM OA day 6, day 14 post BLM, vehicle 200 μg)?
A: The value was 50 µg.

Q: And the “Average SMI grade (semi-quantitative morphological index)” value ([2]; CMH 30 μM OA day 6, day 14 post BLM, vehicle 2)?
A: Its value is 1.1.

Q: And the “FLIP expression in lung sections (IHC)” value [2, 6]?
A: Its value is “low”.

Q: What about the “SIRT1 expression in lung sections (IHC)” value [2, 6] of the same molecule?
A: Its value is “low”.

Q: What about the “Inhibition of HDACS” value [3] of the same molecule?
A: Its value is “not inhibited”.

Q: And the “Inhibition of HDAC8” value [4]?
A: Its value is “Selective inhibition”.

Q: What about the “Inhibition of HDAC9” value [5] of the same molecule?
A: The value was “not inhibited”.
